Test system: Energy system protein genes
Assay: DNA chip mRNA expression in yeast, energy system protein genes (Table 4)
Assay type: cell-based, Saccharomyces cerevisiae S288C
Method in brief: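 Cells were grown at 25° C. in YPD, treated at logarithmic phase for 2 h with a chemical at a concentration inhibiting growth but not causing death, and compared with untreated cultures. Labeled cDNA was hybridized to a DNA chip carrying all yeast genes, and the expression ratio was taken from scanner fluorescence.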

In the case of `COc1cc(CNC(=O)CCCCC=CC(C)C)ccc1O` [(12), 8-methyl-N-vanillyl-6-nonenamide], the “The level of expressed mRNA in the presence of chemical substance/The level of expressed mRNA in the absence of chemical substance” value (yeast gene YJR048W) was 0.8, the “The level of expressed mRNA in the presence of chemical substance/The level of expressed mRNA in the absence of chemical substance” value (yeast gene YJR121W, cells incubated two hours with the chemical substance) was 0.8 and the “The level of expressed mRNA in the presence of chemical substance/The level of expressed mRNA in the absence of chemical substance” value (yeast gene YJR155W) was 1.0. For the same compound, the “The level of expressed mRNA in the presence of chemical substance/The level of expressed mRNA in the absence of chemical substance” value (yeast gene YKL016C, cells incubated two hours with the chemical substance) was 1.0, the “The level of expressed mRNA in the presence of chemical substance/The level of expressed mRNA in the absence of chemical substance” value (yeast gene YKL060C, cells incubated two hours with the chemical substance) was 1.3 and the “The level of expressed mRNA in the presence of chemical substance/The level of expressed mRNA in the absence of chemical substance” value (yeast gene YKL141W, cells incubated two hours with the chemical substance) was 0.8. The “The level of expressed mRNA in the presence of chemical substance/The level of expressed mRNA in the absence of chemical substance” value (yeast gene YKL148C, cells incubated two hours with the chemical substance) was 0.8, the “The level of expressed mRNA in the presence of chemical substance/The level of expressed mRNA in the absence of chemical substance” value (yeast gene YKR009C, cells incubated two hours with the chemical substance) was 1.0 and the “The level of expressed mRNA in the presence of chemical substance/The level of expressed mRNA in the absence of chemical substance” value (yeast gene YKR058W, cells incubated two hours with the chemical substance, 25° C., YPD medium) was 0.9. For the same compound, the “The level of expressed mRNA in the presence of chemical substance/The level of expressed mRNA in the absence of chemical substance” value (yeast gene YKR097W) was 1.8, the “The level of expressed mRNA in the presence of chemical substance/The level of expressed mRNA in the absence of chemical substance” value (yeast gene YLL041C, cells incubated two hours with the chemical substance) was 0.8 and the “The level of expressed mRNA in the presence of chemical substance/The level of expressed mRNA in the absence of chemical substance” value (yeast gene YLR038C, cells incubated two hours with the chemical substance) was 0.6. The “The level of expressed mRNA in the presence of chemical substance/The level of expressed mRNA in the absence of chemical substance” value (yeast gene YLR044C, cells incubated two hours with the chemical substance) was 1.4, the “The level of expressed mRNA in the presence of chemical substance/The level of expressed mRNA in the absence of chemical substance” value (yeast gene YLR134W, cells incubated two hours with the chemical substance) was 1.2 and the “The level of expressed mRNA in the presence of chemical substance/The level of expressed mRNA in the absence of chemical substance” value (yeast gene YLR258W, cells incubated two hours with the chemical substance) was 0.9. The “The level of expressed mRNA in the presence of chemical substance/The level of expressed mRNA in the absence of chemical substance” value (yeast gene YLR284C, cells incubated two hours with the chemical substance) was 0.6, the “The level of expressed mRNA in the presence of chemical substance/The level of expressed mRNA in the absence of chemical substance” value (yeast gene YLR295C, cells incubated two hours with the chemical substance, 25° C., YPD medium) was 0.5 and the “The level of expressed mRNA in the presence of chemical substance/The level of expressed mRNA in the absence of chemical substance” value (yeast gene YLR304C, cells incubated two hours with the chemical substance) was 1.0. The “The level of expressed mRNA in the presence of chemical substance/The level of expressed mRNA in the absence of chemical substance” value (yeast gene YLR345W) was 1.6, the “The level of expressed mRNA in the presence of chemical substance/The level of expressed mRNA in the absence of chemical substance” value (yeast gene YLR354C, cells incubated two hours with the chemical substance) was 1.2 and the “The level of expressed mRNA in the presence of chemical substance/The level of expressed mRNA in the absence of chemical substance” value (yeast gene YLR377C, cells incubated two hours with the chemical substance) was 0.6. The “The level of expressed mRNA in the presence of chemical substance/The level of expressed mRNA in the absence of chemical substance” value (yeast gene YLR395C, cells incubated two hours with the chemical substance) was 0.6, the “The level of expressed mRNA in the presence of chemical substance/The level of expressed mRNA in the absence of chemical substance” value (yeast gene YML054C) was 1.8 and the “The level of expressed mRNA in the presence of chemical substance/The level of expressed mRNA in the absence of chemical substance” value (yeast gene YML087C) was 0.8. For the same compound, the “The level of expressed mRNA in the presence of chemical substance/The level of expressed mRNA in the absence of chemical substance” value (yeast gene YML120C, cells incubated two hours with the chemical substance) was 0.9, the “The level of expressed mRNA in the presence of chemical substance/The level of expressed mRNA in the absence of chemical substance” value (yeast gene YML129C, cells incubated two hours with the chemical substance) was 0.8 and the “The level of expressed mRNA in the presence of chemical substance/The level of expressed mRNA in the absence of chemical substance” value (yeast gene YMR073C, cells incubated two hours with the chemical substance) was 0.8. The “The level of expressed mRNA in the presence of chemical substance/The level of expressed mRNA in the absence of chemical substance” value (yeast gene YMR118C) was 0.8, the “The level of expressed mRNA in the presence of chemical substance/The level of expressed mRNA in the absence of chemical substance” value (yeast gene YMR205C, cells incubated two hours with the chemical substance) was 1.1 and the “The level of expressed mRNA in the presence of chemical substance/The level of expressed mRNA in the absence of chemical substance” value (yeast gene YMR261C, cells incubated two hours with the chemical substance) was 0.9. For the same compound, the “The level of expressed mRNA in the presence of chemical substance/The level of expressed mRNA in the absence of chemical substance” value (yeast gene YMR267W, cells incubated two hours with the chemical substance, 25° C., YPD medium) was 0.8, the “The level of expressed mRNA in the presence of chemical substance/The level of expressed mRNA in the absence of chemical substance” value (yeast gene YMR323W, cells incubated two hours with the chemical substance) was 1.2 and the “The level of expressed mRNA in the presence of chemical substance/The level of expressed mRNA in the absence of chemical substance” value (yeast gene YNL071W) was 1.3. For the same compound, the “The level of expressed mRNA in the presence of chemical substance/The level of expressed mRNA in the absence of chemical substance” value (yeast gene YNL202W, cells incubated two hours with the chemical substance) was 0.9, the “The level of expressed mRNA in the presence of chemical substance/The level of expressed mRNA in the absence of chemical substance” value (yeast gene YNL241C) was 2.0 and the “The level of expressed mRNA in the presence of chemical substance/The level of expressed mRNA in the absence of chemical substance” value (yeast gene YNL331C) was 0.9. For the same compound, the “The level of expressed mRNA in the presence of chemical substance/The level of expressed mRNA in the absence of chemical substance” value (yeast gene YOL086C, cells incubated two hours with the chemical substance) was 1.3, the “The level of expressed mRNA in the presence of chemical substance/The level of expressed mRNA in the absence of chemical substance” value (yeast gene YOL165C) was 0.8 and the “The level of expressed mRNA in the presence of chemical substance/The level of expressed mRNA in the absence of chemical substance” value (yeast gene YOR142W, cells incubated two hours with the chemical substance) was 0.8. For the same compound, the “The level of expressed mRNA in the presence of chemical substance/The level of expressed mRNA in the absence of chemical substance” value (yeast gene YOR178C, cells incubated two hours with the chemical substance) was 1.7, the “The level of expressed mRNA in the presence of chemical substance/The level of expressed mRNA in the absence of chemical substance” value (yeast gene YOR388C, cells incubated two hours with the chemical substance) was 0.7 and the “The level of expressed mRNA in the presence of chemical substance/The level of expressed mRNA in the absence of chemical substance” value (yeast gene YPL031C, cells incubated two hours with the chemical substance) was 0.8. The “The level of expressed mRNA in the presence of chemical substance/The level of expressed mRNA in the absence of chemical substance” value (yeast gene YPL061W, cells incubated two hours with the chemical substance) was 1.0, the “The level of expressed mRNA in the presence of chemical substance/The level of expressed mRNA in the absence of chemical substance” value (yeast gene YPL088W) was 3.6 and the “The level of expressed mRNA in the presence of chemical substance/The level of expressed mRNA in the absence of chemical substance” value (yeast gene YPL171C) was 1.4. For the same compound, the “The level of expressed mRNA in the presence of chemical substance/The level of expressed mRNA in the absence of chemical substance” value (yeast gene YPL240C) was 0.8, the “The level of expressed mRNA in the presence of chemical substance/The level of expressed mRNA in the absence of chemical substance” value (yeast gene YPL262W, cells incubated two hours with the chemical substance) was 1.1 and the “The level of expressed mRNA in the presence of chemical substance/The level of expressed mRNA in the absence of chemical substance” value (yeast gene YPL275W, cells incubated two hours with the chemical substance) was 0.6. For the same compound, the “The level of expressed mRNA in the presence of chemical substance/The level of expressed mRNA in the absence of chemical substance” value (yeast gene YPL276W, cells incubated two hours with the chemical substance) was 0.6, the “The level of expressed mRNA in the presence of chemical substance/The level of expressed mRNA in the absence of chemical substance” value (yeast gene YPR048W, cells incubated two hours with the chemical substance) was 0.8 and the “The level of expressed mRNA in the presence of chemical substance/The level of expressed mRNA in the absence of chemical substance” value (yeast gene YPR184W, cells incubated two hours with the chemical substance) was 1.4.

Reference: patent US8192962B2, “Processes for detecting toxic substances” (Daikin Industries, Ltd., priority 2001, dated 2012)
